Values quoted from earlier work as cited in article PMC8198792, “Prediction of Anticancer Peptides with High Efficacy and Low Toxicity by Hybrid Model Based on 3D Structure of Peptides” (International Journal of Molecular Sciences, 2021).
Like-named read-outs stand apart in the source and are kept apart here.

Assays:
[1] = system: erythrocytes; details: cited from earlier work
Description: Supplement ijms-22-05630-s001.zip/Hemloytic Peptides(seguence).xlsx, sheet "HD1" | column: Activity || Supplement ijms-22-05630-s001.zip/Hemloytic Peptides(seguence).xlsx, sheet "HD2" | column: Activity || Supplement ijms-22-05630-s001.zip/Hemloytic Peptides(seguence).xlsx, sheet "HD3" | column: Activity

[2] = system: cancer cell lines; parameters: method as in 6 sources, ref CancerPPD [45] and SATPdb ||| ref CancerPPD/SATPdb ||| ref CancerPPD, SATPdb, Swissprot (PDB) ||| ref CancerPPD/SATPdb/Swissprot(PDB) ||| ref CancerPPD / SATPdb ||| ...; details: cited from earlier work
Description: Supplement ijms-22-05630-s001.zip/ACPs(seguence).xlsx, sheet "D1" | column: Activity || Supplement ijms-22-05630-s001.zip/ACPs(seguence).xlsx, sheet "D2" | column: Activity || Supplement ijms-22-05630-s001.zip/ACPs(seguence).xlsx, sheet "D3" | column: Activity || (+ 2 further places)

[3] = hemolytic peptides dataset HD3, 1 = hemolytic (positive set), 0 = non-hemolytic (negative set), labels taken from databases, ref Hemolytik/SATPdb
[4] = natural hemolytic peptide dataset HD1, label collected from databases, ref Hemolytik [49], SATPdb [34]
[5] = ACPs dataset D1, 1 = ACP (positive), 0 = non-ACP (negative), label taken from databases, ref CancerPPD [45] and SATPdb
[6] = ACPs dataset D4 (sheet "D4"), label 1 = ACP, experimentally validated ACPs, ref CancerPPD [45] and SATPdb
[7] = ACPs dataset D5 (sheet "D5"), label 1 = ACP (positive set), sequences with CancerPPD/SATPdb ID, ref CancerPPD, SATPdb
[8] = ACPs dataset sheet D2, 1 = ACP (CancerPPD/SATPdb ID), 0 = non-ACP (Swissprot/PDB ID), ref CancerPPD, SATPdb, Swissprot (PDB)
[9] = ACPs dataset D3 (supplement sheet "D3"), 1 = ACP, 0 = non-ACP, ref CancerPPD [45] and SATPdb
[10] = ACPs dataset D4 (sheet "D4"), label 1 = ACP (CancerPPD ID), 0 = non-ACP (non-anticancer AMP, SATPdb ID), ref CancerPPD [45] and SATPdb
[11] = ACPs dataset D5 (sheet "D5"), label 1 = ACP (positive set), 0 = non-ACP (negative set), ref CancerPPD [45] and SATPdb
[12] = ACPs dataset D1, label 1 = ACP, 0 = non-ACP (non-anticancer AMPs from SATPdb), ref CancerPPD/SATPdb
[13] = ACPs dataset D2 (supplement ACPs(seguence).xlsx, sheet D2), dataset label 1/0 (ACP / non-ACP), entries identified by Swissprot(PDB ID), ref CancerPPD/SATPdb/Swissprot(PDB)
[14] = ACPs dataset D5, sheet "D5", label 1 = ACP, 0 = non-ACP, ref CancerPPD [45] and SATPdb
[15] = ACPs dataset D3 (sheet "D3"), label 1 = ACP, 0 = non-ACP, ref CancerPPD/SATPdb
[16] = ACPs dataset D4 (sheet "D4"), label 1 = ACP, 0 = non-ACP, ref CancerPPD / SATPdb

AAGMGFFGAR [satpdb25191]
Activity ([1]; Hemolytic peptides dataset HD2, label 1 = hemolytic, 0 = non-hemolytic, ref Hemolytik/SATPdb): 0 | Activity [1, 3]: 0

AKKVFKRLEKLFSKIWNDK [satpdb16260]
Activity [1]: 0 | Activity (dataset HD1, hemolytic 1 / non-hemolytic 0) [1]: 0

AKKVFKRLEKSFSKIQNDK [satpdb11458]
Activity [1]: 0 | Activity (dataset HD1, hemolytic 1 / non-hemolytic 0) [1]: 0

AKKVSKRLEKLFSKIQNDK [satpdb19605]
Activity [1]: 0 | Activity (dataset HD1, hemolytic 1 / non-hemolytic 0) [1]: 0

ALLHHGLNCAKGVLAALLHHGLNCAKGVLA [satpdb21285]
Activity [1]: 0 | Activity (dataset HD1, hemolytic 1 / non-hemolytic 0) [1]: 0

ALWKTLLKKVLKA [satpdb11740]
Activity [1]: 1

CGESCVFIPCVTALLGCSCKSKVCYKNSIP [satpdb12547]
Activity [1, 3]: 1 | Activity (dataset HD1, hemolytic 1 / non-hemolytic 0) [1, 4]: 1

CKLLKTFLSKWIC [compound 3456]
Activity [1]: 1

CKTRTSTNTDHLWIAKSKARLSET [satpdb28106]
Activity [1]: 0 | Activity (dataset HD1, hemolytic 1 / non-hemolytic 0) [1]: 0

CVHWQTNPARTSCIGP [satpdb12022]
Activity [1]: 0 | Activity (dataset HD1, hemolytic 1 / non-hemolytic 0) [1]: 0

CVISAGWNHKIRCKLTGNC [satpdb27441]
Activity [1]: 0 | Activity (dataset HD1, hemolytic 1 / non-hemolytic 0) [1]: 0

CYCRIPACIAGERRYGTCIYQGRLWAFCC [satpdb11499]
Activity [1]: 1 | Activity (dataset HD1, hemolytic 1 / non-hemolytic 0) [1]: 1

DANVENGEDAEDLTDKFIGLMG [satpdb17330]
Activity [1]: 0 | Activity (dataset HD1, hemolytic 1 / non-hemolytic 0) [1]: 0

DSHEKRHHGYKRKFHEKHHSHRGY [satpdb14665]
Activity [1]: 0 | Activity (dataset HD1, hemolytic 1 / non-hemolytic 0) [1]: 0

DVNDLKNLCAKTHNLLPMCAMFGKK [satpdb20310]
Activity [1]: 0 | Activity (dataset HD1, hemolytic 1 / non-hemolytic 0) [1]: 0

EMLKKKEVKMERKT [satpdb18957]
Activity [1]: 0 | Activity (dataset HD1, hemolytic 1 / non-hemolytic 0) [1]: 0

ENAEEDIVLMENLFCSYIVGSADSFWT [satpdb18741]
Activity [1]: 0 | Activity (dataset HD1, hemolytic 1 / non-hemolytic 0) [1]: 0

ENMFNIKSSVESDSFWG [satpdb15776]
Activity [1]: 0 | Activity (dataset HD1, hemolytic 1 / non-hemolytic 0) [1]: 0

EWGRRCCGWGPGRRYCRRWC [satpdb13121]
Activity [1, 3]: 0 | Activity (dataset HD1, hemolytic 1 / non-hemolytic 0) [1, 4]: 0

FDWDSVLKGVEGFVRGYF [satpdb25715]
Activity [1]: 0 | Activity (dataset HD1, hemolytic 1 / non-hemolytic 0) [1]: 0

FGVLAKVAAHVVPAIAEHF [satpdb27842]
Activity [1]: 0

FIFPKKNIINSLFGR [satpdb24412]
Activity [1, 3]: 0 | Activity (dataset HD1, hemolytic 1 / non-hemolytic 0) [1, 4]: 0

FKCRRWQWRWKKLGAKPVPIIYCNRRTGKCQRM [satpdb24174]
Activity [1]: 0 | Activity (dataset HD1, hemolytic 1 / non-hemolytic 0) [1]: 0

TGASSEEEDPF [satpdb18128]
Activity [2, 5]: 1 | Activity [2, 6]: 1 | Activity [2, 7]: 1 | Activity [2, 8]: 1

THRPPMWSPVWPGGGKLlLKlLkkLLKlLKKK [compound 4603]
Activity [2, 9]: 1 | Activity [2, 10]: 1 | Activity [2, 11]: 1

TITLSTCAILSKPLGNNGYLCTVTKECMPSSCN [satpdb12698]
Activity [2, 12]: 0 | Activity [2, 10]: 0

TKPRKTKPRKTKPRKTKPR [compound 5055]
Activity [2, 5]: 1 | Activity [2, 6]: 1 | Activity [2, 7]: 1 | Activity [2, 8]: 1

TLPFAYCNIHQVCHYAQRNDRSYWL [satpdb12859]
Activity [2, 5]: 1 | Activity [2, 6]: 1 | Activity [2, 7]: 1 | Activity [2, 8]: 1

TMPFLFCNVNDCNFASRNDYSYWL [satpdb12405]
Activity [2, 5]: 1 | Activity [2, 6]: 1 | Activity [2, 7]: 1 | Activity [2, 8]: 1

TNYGNGVGVPDAIMAGIIKLIFIFNIRQGYNFGKKAT [satpdb11292]
Activity [2, 5]: 0 | Activity [2, 10]: 0

TSPQREATCTSEVSGCPKIYNPVCGTDGITYSNECVLCSENKKRQTPVLIQKSGPC [1TGS X-ray 1.80,I,1-56]
Activity [2, 13]: 0 | Activity [2, 14]: 0

TSWSPCSASCGGGHYQRTR [satpdb16504]
Activity [2, 5]: 1 | Activity [2, 6]: 1 | Activity [2, 7]: 1 | Activity [2, 8]: 1

TSWSQCSKTCGTGISTRV [satpdb19109]
Activity [2, 5]: 1 | Activity [2, 6]: 1 | Activity [2, 7]: 1 | Activity [2, 8]: 1

TTITGKKCQSWAAMFPHRHSKT [satpdb18336]
Activity [2, 5]: 1 | Activity [2, 6]: 1 | Activity [2, 7]: 1 | Activity [2, 8]: 1

VAKCTEESGGKYFVFCCYKPTRICYMNEQKCESTCIGK [satpdb10361]
Activity [2, 5]: 0 | Activity [2, 10]: 0

VAKKLAKLAKKLAKLAL [compound 1919]
Activity [2, 9]: 1 | Activity [2, 10]: 1 | Activity [2, 11]: 1

VDENAEDTHGLCGEKTCSPAQVCLNNECACTAIRCMIFCPNGFKVDENGCEYPCTCA [3BG4 X-ray 2.50 D 1-57]
Activity [2, 13]: 0 | Activity [2, 14]: 0

VGSGGCMFGNGK [satpdb10083]
Activity [2, 5]: 1 | Activity [2, 6]: 1 | Activity [2, 7]: 1 | Activity [2, 8]: 1

VIFEWTLLQVLSESDQDQSLEVFLT [satpdb18497]
Activity [2, 5]: 1 | Activity [2, 6]: 1 | Activity [2, 7]: 1 | Activity [2, 8]: 1

VKLLVyPLKVKLyP [satpdb13876]
Activity [2, 15]: 0 | Activity [2, 16]: 0 | Activity [2, 14]: 0

VLSIVACSSGCGSGKTAASCVETCGNRCFTNVGSLC [satpdb10613]
Activity [2, 5]: 0 | Activity [2, 10]: 0

VOLKfPVOLfP [satpdb14846]
Activity [2, 15]: 0 | Activity [2, 16]: 0 | Activity [2, 14]: 0

VOLOfPVOLfP [satpdb12074]
Activity [2, 15]: 0 | Activity [2, 16]: 0 | Activity [2, 14]: 0

VRRFPWWWAFLRR [satpdb11783]
Activity [2, 9]: 0 | Activity [2, 16]: 0 | Activity [2, 14]: 0

VSRRRRRRGGRRRR [satpdb11057]
Activity [2, 5]: 0 | Activity [2, 10]: 0

VVGSPSAQDEASPL [satpdb16227]
Activity [2, 5]: 1 | Activity [2, 6]: 1 | Activity [2, 7]: 1 | Activity [2, 8]: 1

VVKCSYRLGSPDSQCN [satpdb13432]
Activity [2, 12]: 0 | Activity [2, 16]: 0

WDLVVVSAGVAEVGV [satpdb12938]
Activity [2, 5]: 1 | Activity [2, 6]: 1 | Activity [2, 7]: 1 | Activity [2, 8]: 1

WKSYVRRWRSR [satpdb10329]
Activity [2, 5]: 0 | Activity [2, 10]: 0

WNPFKELERAGQRVRDAIISAAPAVATVGQAAAIARG [satpdb12131]
Activity [2, 12]: 0 | Activity [2, 10]: 0

WYVKKCLNDVGICKKKCKPEEMHVKNGWAMCGKGRDCCVPAD [satpdb13381]
Activity [2, 12]: 0 | Activity [2, 16]: 0

YGRKKRRQRRRREADFFWSLCTADMS [compound 3718]
Activity [2, 5]: 1 | Activity [2, 6]: 1 | Activity [2, 7]: 1 | Activity [2, 8]: 1

YITCLFRGARCRVYSGRSCCFGYYCRRDFPGSIFGTCSRRNF [2DCW NMR - A 1-42]
Activity [2, 13]: 0 | Activity [2, 11]: 0

YNRLCIKPRDWIDECDSNEGGERAYFRNGKGGCDSFWICPEDHTGADYYSSYRDCFNACI [1D0D X-ray 1.62,A,1-60]
Activity [2, 13]: 0 | Activity [2, 14]: 0

YRGGYTGPIPRPPPIGRPPLRLVVCACYRLS [satpdb12661]
Activity [2, 12]: 0 | Activity [2, 10]: 0

YTMNPRKLFDY [satpdb15978]
Activity [2, 5]: 1 | Activity [2, 6]: 1 | Activity [2, 7]: 1 | Activity [2, 8]: 1

kWkSFLkTFkSLKkTVLHTLLkAISS [compound 1231]
Activity [2, 9]: 1 | Activity [2, 10]: 1 | Activity [2, 11]: 1

rrrrrrrrGEDIIRNIARHAAQVGASMDR [compound 4239]
Activity [2, 9]: 1 | Activity [2, 10]: 1 | Activity [2, 11]: 1

rrrrrrrrGEDIIRNIARHLAQVGDSMDR [compound 4227]
Activity [2, 9]: 1 | Activity [2, 10]: 1 | Activity [2, 11]: 1
